# Reference: ChEMBL document CHEMBL1136171, “Acetylenic TACE inhibitors. Part 1. SAR of the acyclic sulfonamide hydroxamates” (Bioorg Med Chem Lett, 2003)
# System: not listed separately
# Experiment: Oral bioavailability in rat at 10 mg/kg of the compound
# Format: ADME, organism-based
# Details: in vivo
row,Compound,bioavailability [%]
1,CC#CCOc1ccc(S(=O)(=O)N[C@@H](C(=O)NO)C(C)O)cc1 (stereo not given in full),46

# System: not listed separately
# Experiment: Oral bioavailability in dog at 10 mg/kg of the compound
# Format: ADME, organism-based, Canis lupus familiaris
# Details: in vivo
row,Compound,bioavailability [%]
1,CC#CCOc1ccc(S(=O)(=O)N[C@@H](C(=O)NO)C(C)O)cc1 (stereo not given in full),75

# Target: T1, Interstitial collagenase (Homo sapiens) (UniProt P03956)
# T1 sequence (whole entry): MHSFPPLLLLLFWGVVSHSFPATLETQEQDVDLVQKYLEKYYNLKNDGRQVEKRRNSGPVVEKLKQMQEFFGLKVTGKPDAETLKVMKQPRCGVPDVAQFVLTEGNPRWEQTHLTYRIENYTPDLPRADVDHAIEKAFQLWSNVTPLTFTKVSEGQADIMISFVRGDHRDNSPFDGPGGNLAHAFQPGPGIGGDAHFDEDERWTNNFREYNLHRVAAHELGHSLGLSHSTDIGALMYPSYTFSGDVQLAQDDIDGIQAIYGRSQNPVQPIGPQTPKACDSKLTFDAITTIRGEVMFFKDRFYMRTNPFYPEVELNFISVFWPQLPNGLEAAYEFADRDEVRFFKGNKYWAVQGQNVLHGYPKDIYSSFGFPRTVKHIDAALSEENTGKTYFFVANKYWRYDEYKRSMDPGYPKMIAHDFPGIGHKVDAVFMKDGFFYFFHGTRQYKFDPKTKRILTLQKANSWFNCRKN
# Experiment: Inhibition of Matrix metalloprotein 1 at 10 uM
# Details: not given
row,inhibition [%],Compound
1,47,CC#CCOc1ccc(S(=O)(=O)NCC(=O)NO)cc1

# System: Mus musculus
# Experiment: Compound was reproducibly active at reducing clinical severity scores in mouse p.o.
# Format: functional
# Details: not given
row,Compound,Activity [mg/kg]
1,CC#CCOc1ccc(S(=O)(=O)N[C@@H](C(=O)NO)C(C)O)cc1 (stereo not given in full),10

# Target: T2, Disintegrin and metalloproteinase domain-containing protein 17 (Homo sapiens, UniProt P78536)
# Experiment: In vitro inhibition of tumor necrosis factor-alpha converting enzyme
# Details: not given
# T2 sequence (P78536 whole entry, the tested form may be a part): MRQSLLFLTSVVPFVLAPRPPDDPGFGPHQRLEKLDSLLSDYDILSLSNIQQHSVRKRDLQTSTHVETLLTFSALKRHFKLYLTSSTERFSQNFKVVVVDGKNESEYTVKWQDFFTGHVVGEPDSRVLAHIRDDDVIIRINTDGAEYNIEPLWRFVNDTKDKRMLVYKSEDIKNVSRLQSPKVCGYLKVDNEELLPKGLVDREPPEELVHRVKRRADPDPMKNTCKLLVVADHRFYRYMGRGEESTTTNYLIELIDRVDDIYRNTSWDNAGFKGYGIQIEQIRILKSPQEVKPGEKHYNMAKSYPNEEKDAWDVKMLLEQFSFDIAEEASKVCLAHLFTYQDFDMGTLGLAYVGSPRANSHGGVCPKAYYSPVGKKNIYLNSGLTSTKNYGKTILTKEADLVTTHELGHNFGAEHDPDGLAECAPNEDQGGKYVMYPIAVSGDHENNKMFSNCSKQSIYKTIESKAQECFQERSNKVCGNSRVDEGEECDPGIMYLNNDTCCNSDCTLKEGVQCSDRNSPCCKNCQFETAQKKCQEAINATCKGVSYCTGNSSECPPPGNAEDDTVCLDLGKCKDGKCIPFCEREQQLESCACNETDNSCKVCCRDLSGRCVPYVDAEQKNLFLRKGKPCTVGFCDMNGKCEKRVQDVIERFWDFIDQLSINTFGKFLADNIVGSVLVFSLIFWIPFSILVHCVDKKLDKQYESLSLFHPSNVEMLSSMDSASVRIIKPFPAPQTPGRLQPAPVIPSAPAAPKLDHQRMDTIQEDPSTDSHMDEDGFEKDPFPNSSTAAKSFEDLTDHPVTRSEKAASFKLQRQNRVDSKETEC
row,Compound,IC50 [µM]
1,CC#CCOc1ccc(S(=O)(=O)NC(C(=O)NO)C(C)(C)SCc2cccnc2)cc1 (stereo not given),0.006
2,CC#CCOc1ccc(S(=O)(=O)N(C)[C@@H](C(=O)NO)C(C)C)cc1,0.015
3,CC#CCOc1ccc(S(=O)(=O)N[C@@H](C(=O)NO)C(C)C)cc1,0.01
4,CC#CCOc1ccc(S(=O)(=O)N[C@H](C)C(=O)NO)cc1,0.004
5,CC#CCOc1ccc(S(=O)(=O)N[C@@H](C(=O)NO)C(C)O)cc1 (stereo not given in full),0.01
6,CC#CCOc1ccc(S(=O)(=O)NCC(=O)NO)cc1,0.005
7,CC#CCOc1ccc(S(=O)(=O)NC(CSCc2cccnc2)C(=O)NO)cc1 (stereo not given),0.003
8,CC#CCOc1ccc(S(=O)(=O)N(C)CC(=O)NO)cc1,0.007
9,CC#CCOc1ccc(S(=O)(=O)N(C)C(C(=O)NO)C(C)(C)SCc2cccnc2)cc1 (stereo not given),0.054
10,CC#CCOc1ccc(S(=O)(=O)N(C)[C@H](C)C(=O)NO)cc1,0.005

# System: THP-1
# Experiment: Inhibition of LPS-stimulated production of TNF-alpha at the dose of 3 uM concentration
# Format: functional
# Details: Homo sapiens
row,Compound,inhibition at 3 µM [%]
1,CC#CCOc1ccc(S(=O)(=O)N(C)CCC(=O)NO)cc1,9
2,CN(CC(=O)NO)S(=O)(=O)c1ccc(CCC#N)cc1,7
3,CC#CCOc1ccc(S(=O)(=O)NCCC(=O)NO)cc1,0

# Target: T3, Interstitial collagenase (Homo sapiens, UniProt P03956)
# T3 sequence (P03956 whole entry): T1 sequence (whole entry)
# Experiment: In vitro inhibition of Matrix metalloprotein 1
# Details: not given
row,Compound,IC50 [µM]
1,C#CCNc1ccc(S(=O)(=O)N(C)CC(=O)NO)cc1,~10
2,CC#CCOc1ccc(S(=O)(=O)NC(C(=O)NO)C(C)(C)SCc2cccnc2)cc1 (stereo not given),0.476
3,CC#CCOc1ccc(S(=O)(=O)N(C)[C@@H](C(=O)NO)C(C)C)cc1,0.259
4,CC#CCOc1ccc(S(=O)(=O)N[C@@H](C(=O)NO)C(C)C)cc1,2.96
5,CN(CC(=O)NO)S(=O)(=O)c1ccc(CCC#N)cc1,> 10
6,CC#CCOc1ccc(S(=O)(=O)N[C@H](C)C(=O)NO)cc1,4.03
7,CC#CCOc1ccc(S(=O)(=O)N[C@@H](C(=O)NO)C(C)O)cc1 (stereo not given in full),2.47
8,CC#CCOc1ccc(S(=O)(=O)NC(CSCc2cccnc2)C(=O)NO)cc1 (stereo not given),1.91
9,CC#CCOc1ccc(S(=O)(=O)N[C@@H](C(=O)NO)c2ccc(OCCNC)cc2)cc1,10
10,CC#CCOc1ccc(S(=O)(=O)N(C)[C@H](C)C(=O)NO)cc1,0.33

# Target: Matrix metalloproteinase-9 (Homo sapiens, UniProt P14780)
# Details: not given
# Chain of Matrix metalloproteinase-9 (P14780 whole entry): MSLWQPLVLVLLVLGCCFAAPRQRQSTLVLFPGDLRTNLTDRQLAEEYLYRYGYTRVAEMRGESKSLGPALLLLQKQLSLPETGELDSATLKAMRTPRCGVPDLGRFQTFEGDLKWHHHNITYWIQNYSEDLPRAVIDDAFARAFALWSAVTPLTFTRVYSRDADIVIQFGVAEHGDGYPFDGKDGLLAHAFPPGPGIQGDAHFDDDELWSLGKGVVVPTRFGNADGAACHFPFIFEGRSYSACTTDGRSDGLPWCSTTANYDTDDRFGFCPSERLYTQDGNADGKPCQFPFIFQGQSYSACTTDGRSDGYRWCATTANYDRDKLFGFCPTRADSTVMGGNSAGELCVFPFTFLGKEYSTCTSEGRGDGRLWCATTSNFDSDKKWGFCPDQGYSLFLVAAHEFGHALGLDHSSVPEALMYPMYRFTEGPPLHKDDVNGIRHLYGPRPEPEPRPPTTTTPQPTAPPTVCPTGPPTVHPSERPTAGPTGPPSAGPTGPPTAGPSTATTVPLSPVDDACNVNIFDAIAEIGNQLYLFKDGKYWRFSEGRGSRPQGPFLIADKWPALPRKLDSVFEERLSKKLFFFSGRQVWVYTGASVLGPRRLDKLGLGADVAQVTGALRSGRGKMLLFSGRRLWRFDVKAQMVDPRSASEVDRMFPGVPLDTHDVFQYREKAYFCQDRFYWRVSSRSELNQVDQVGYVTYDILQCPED
row,Compound,IC50 [µM]
1,CC#CCOc1ccc(S(=O)(=O)NC(C(=O)NO)C(C)(C)SCc2cccnc2)cc1 (stereo not given),0.13
2,CC#CCOc1ccc(S(=O)(=O)N[C@@H](C(=O)NO)C(C)C)cc1,0.042
3,CN(CC(=O)NO)S(=O)(=O)c1ccc(CCC#N)cc1,0.074
4,CC#CCOc1ccc(S(=O)(=O)N[C@H](C)C(=O)NO)cc1,0.796
5,CC#CCOc1ccc(S(=O)(=O)N[C@@H](C(=O)NO)C(C)O)cc1 (stereo not given in full),0.777
6,CC#CCOc1ccc(S(=O)(=O)NC(CSCc2cccnc2)C(=O)NO)cc1 (stereo not given),0.16
7,CC#CCOc1ccc(S(=O)(=O)N(C)C(C(=O)NO)C(C)(C)SCc2cccnc2)cc1 (stereo not given),0.004
8,CC#CCOc1ccc(S(=O)(=O)N(C)[C@H](C)C(=O)NO)cc1,0.068

# Organism: Homo sapiens
# Experiment: Inhibitory concentration against LPS-stimulated TNF-alpha production in human whole blood
# Format: functional
# Details: not given
row,Compound,IC50 [µM]
1,CC#CCOc1ccc(S(=O)(=O)N[C@@H](C(=O)NO)C(C)O)cc1 (stereo not given in full),1

# Target: T2, Disintegrin and metalloproteinase domain-containing protein 17
# Experiment: Inhibition of tumor necrosis factor-alpha converting enzyme
# Details: concentration not given here
row,Compound,inhibition [%]
1,CN(CC(=O)NO)S(=O)(=O)c1ccc(CCC#N)cc1,6

# System: Mus musculus
# Experiment: Compound was reproducibly active at reducing clinical severity scores expressed as efficacy in mouse p.o.
# Format: functional
# Details: not given
row,Compound,Activity [mg/kg]
1,CC#CCOc1ccc(S(=O)(=O)N[C@@H](C(=O)NO)C(C)O)cc1 (stereo not given in full),20

# System: not listed separately
# Experiment: Oral bioavailability in mouse at 10 mg/kg of the compound
# Format: ADME, organism-based
# Details: in vivo
row,Compound,bioavailability [%]
1,CC#CCOc1ccc(S(=O)(=O)N[C@@H](C(=O)NO)C(C)O)cc1 (stereo not given in full),100

# System: THP-1
# Experiment: Inhibition of LPS-stimulated production of TNF-alpha, at the dose of 1 uM concentration
# Format: functional
# Details: not given
row,Compound,Inhibition [%]
1,CC#CCOc1ccc(S(=O)(=O)N(C)[C@H](C)C(=O)NO)cc1,60

# Same assay, conditions: Homo sapiens, THP-1
row,Compound,inhibition at 1 µM [%]
1,CC#CCOc1ccc(S(=O)(=O)N(CC(=O)NO)Cc2cccnc2)cc1,45
2,CC#CCOc1ccc(S(=O)(=O)NC(C(=O)NO)C(C)(C)SCc2cccnc2)cc1 (stereo not given),49
3,CC#CCOc1ccc(S(=O)(=O)N(C)C(CSCc2cccnc2)C(=O)NO)cc1 (stereo not given),80
4,CC#CCOc1ccc(S(=O)(=O)N(C)[C@@H](C(=O)NO)C(C)C)cc1,79
5,CC#CCOc1ccc(S(=O)(=O)N[C@@H](C(=O)NO)C(C)C)cc1,58
6,CC#CCOc1ccc(S(=O)(=O)N[C@H](C)C(=O)NO)cc1,40
7,CC#CCOc1ccc(S(=O)(=O)N[C@@H](C(=O)NO)C(C)O)cc1 (stereo not given in full),50
8,CC#CCOc1ccc(S(=O)(=O)NCC(=O)NO)cc1,15
9,CC#CCOc1ccc(S(=O)(=O)NC(CSCc2cccnc2)C(=O)NO)cc1 (stereo not given),56
10,CC#CCOc1ccc(S(=O)(=O)N[C@@H](C(=O)NO)c2ccc(OCCNC)cc2)cc1,48
11,CC#CCOc1ccc(S(=O)(=O)N(C)CC(=O)NO)cc1,22
12,CC#CCOc1ccc(S(=O)(=O)N[C@@H](C(=O)NO)C(C)(C)C)cc1,78
13,CC#CCOc1ccc(S(=O)(=O)NC(C)(C)C(=O)NO)cc1,9
14,CC#CCOc1ccc(S(=O)(=O)N(C)C(C(=O)NO)C(C)(C)SCc2cccnc2)cc1 (stereo not given),52
15,CC#CCOc1ccc(S(=O)(=O)N(C)[C@@H](C(=O)NO)c2ccc(OCCNC)cc2)cc1,87

# System: Mus musculus
# Experiment: In vivo percent inhibition against LPS-stimulated production of TNF-alpha in a mouse at a dose of 50 mg/Kg p.o.
# Format: functional
# Details: po, read-out: Inhibition
row,Compound,inhibition in vivo at 50 mg/kg [%]
1,CC#CCOc1ccc(S(=O)(=O)N[C@H](C)C(=O)NO)cc1,> 75
2,CC#CCOc1ccc(S(=O)(=O)N[C@@H](C(=O)NO)C(C)(C)C)cc1,> 75
3,CC#CCOc1ccc(S(=O)(=O)N(C)[C@@H](C(=O)NO)c2ccc(OCCNC)cc2)cc1,> 75

# Organism: Mus musculus
# Experiment: Effective dose in mouse
# Format: functional
# Details: not given
row,Compound,ED50 [mg/kg]
1,CC#CCOc1ccc(S(=O)(=O)N[C@@H](C(=O)NO)C(C)O)cc1 (stereo not given in full),3

# Target: Collagenase 3 (Homo sapiens, UniProt P45452)
# Details: not given
row,Compound,IC50 [µM]
1,CC#CCOc1ccc(S(=O)(=O)NC(C(=O)NO)C(C)(C)SCc2cccnc2)cc1 (stereo not given),0.008
2,CC#CCOc1ccc(S(=O)(=O)N(C)C(CSCc2cccnc2)C(=O)NO)cc1 (stereo not given),0.005
3,CC#CCOc1ccc(S(=O)(=O)N(C)[C@@H](C(=O)NO)C(C)C)cc1,0.038
4,CC#CCOc1ccc(S(=O)(=O)N[C@@H](C(=O)NO)C(C)C)cc1,0.018
5,CN(CC(=O)NO)S(=O)(=O)c1ccc(CCC#N)cc1,0.207
6,CC#CCOc1ccc(S(=O)(=O)N[C@H](C)C(=O)NO)cc1,0.195
7,CC#CCOc1ccc(S(=O)(=O)N[C@@H](C(=O)NO)C(C)O)cc1 (stereo not given in full),0.086
8,CC#CCOc1ccc(S(=O)(=O)NC(CSCc2cccnc2)C(=O)NO)cc1 (stereo not given),0.028
9,CC#CCOc1ccc(S(=O)(=O)N(C)C(C(=O)NO)C(C)(C)SCc2cccnc2)cc1 (stereo not given),0.002
10,CC#CCOc1ccc(S(=O)(=O)N(C)[C@H](C)C(=O)NO)cc1,0.028

# System: not listed separately
# Experiment: Oral bioavailability in monkey at 10 mg/kg of the compound
# Format: ADME, organism-based
# Details: cercopithecidae, in vivo
row,Compound,bioavailability [%]
1,CC#CCOc1ccc(S(=O)(=O)N[C@@H](C(=O)NO)C(C)O)cc1 (stereo not given in full),17
